Experiments:
[1] = test system: cervix (cervical lesions); test: Colposcopy with AA then FNa staining, histopathology (biopsy) as reference diagnosis; type: in vivo, human; conditions: for Accuracy: correlation of staining with biopsy report; for Sensitivity / Specificity: diagnosis of high grade SIL or worse per histopathology; for Number of patients, stain negative, Total / Number of patients, stain positive, Total: all biopsies
Protocol: The FNa formulation is applied in 3 steps, each using either a cotton swab or plastic pipette for delivery and continuing until all solution is dispensed: a) Pre-rinse with 10 mL of normal saline to remove cervical mucus. b) Apply 10 mL of a FNa delivery solution over the cervix. Solution in the posterior cul-de-sac is picked up with the pipette and resprayed, at least once, then discarded. c) after imaging or diagnosis, post-rinse with 10 mL of normal saline.

[2] = test system: cervix; test: Staining properties of FNa versus AA when tested; parameters: species or system human; conditions: in vivo
Text: In some embodiments, FNa staining may be observed with an unaided eye. Using FNa as a staining agent enables use in low resource settings where access to a colposcope is not possible.

[3] = test system: cervical lesions (CIN); test: Lesion grade stained, shown by p16, Ki67 and c-myc FISH staining of specimens; parameters: species or system human

## CC(=O)O [AA, acetic acid]
[1]; AA versus FNa, patients with low grade SIL per histopathology
  More false positives than the other stain: three
[1]; No pap smear (n = 5)
  Number of patients Acetic acid positive: 5
[1]; Pap smear High grade (n = 22)
  Number of patients Acetic acid positive: 20
[1]; Pap smear Invasive (n = 5)
  Number of patients Acetic acid positive: 5
[1]; Pap smear Low grade (n = 46)
  Number of patients Acetic acid positive: 44
[1]
  Accuracy: Accuracy = 94%
  Sensitivity: 94%
  Specificity: 43%
  Number of patients, stain negative, Total: 4
  Number of patients, stain negative, biopsy Ca, HG, LG: 1
  Number of patients, stain positive, Total: 74
  Number of patients, stain positive, biopsy Ca, HG, LG: 70
[1]; in vivo
  Missed high grade lesions: Neither AA nor FNa missed any high grade lesions
[2]
  Burning sensation: burning sensation that AA causes
[3]
  Lesion grades stained: stains any lesion from CIN 1 and worse

## O=C1OC2(c3ccc(O)cc3Oc3cc(O)ccc32)c2ccccc21 [FNa, Fluorescein (3′,6′-dihydrospiro[isobenzofuran-1(3H),9′-[9H]xanthene]-3-one) sodium]
[1]; No pap smear (n = 5), stain Negative, Benign biopsy n = 6
  Number of patients: 0
[1]; No pap smear (n = 5), stain Negative, High grade biopsy (n = 26)
  Number of patients: 0
[1]; No pap smear (n = 5), stain Negative, Invasive (n = 5)
  Number of patients: 0
[1]; No pap smear (n = 5), stain Negative, Low grade Biopsy (n = 41)
  Number of patients: 1
[1]; No pap smear (n = 5), stain Negative, all
  Number of patients: 1
[1]; No pap smear (n = 5), stain Positive, Benign biopsy n = 6
  Number of patients: 0
[1]; No pap smear (n = 5), stain Positive, High grade biopsy (n = 26)
  Number of patients: 1
[1]; No pap smear (n = 5), stain Positive, Invasive (n = 5)
  Number of patients: 0
[1]; No pap smear (n = 5), stain Positive, Low grade Biopsy (n = 41)
  Number of patients: 3
[1]; No pap smear (n = 5), stain Positive, all
  Number of patients: 4
[1]; Pap smear High grade (n = 22), stain Negative, Benign biopsy n = 6
  Number of patients: 2
[1]; Pap smear High grade (n = 22), stain Negative, High grade biopsy (n = 26)
  Number of patients: 0
[1]; Pap smear High grade (n = 22), stain Negative, Invasive (n = 5)
  Number of patients: 0
[1]; Pap smear High grade (n = 22), stain Negative, Low grade Biopsy (n = 41)
  Number of patients: 0
[1]; Pap smear High grade (n = 22), stain Negative, all
  Number of patients: 2
[1]; Pap smear High grade (n = 22), stain Positive, Benign biopsy n = 6
  Number of patients: 0
[1]; Pap smear High grade (n = 22), stain Positive, High grade biopsy (n = 26)
  Number of patients: 12
[1]; Pap smear High grade (n = 22), stain Positive, Invasive (n = 5)
  Number of patients: 3
[1]; Pap smear High grade (n = 22), stain Positive, Low grade Biopsy (n = 41)
  Number of patients: 5
[1]; Pap smear High grade (n = 22), stain Positive, all
  Number of patients: 20
[1]; Pap smear Invasive (n = 5), stain Negative, Benign biopsy n = 6
  Number of patients: 0
[1]; Pap smear Invasive (n = 5), stain Negative, High grade biopsy (n = 26)
  Number of patients: 0
[1]; Pap smear Invasive (n = 5), stain Negative, Invasive (n = 5)
  Number of patients: 0
[1]; Pap smear Invasive (n = 5), stain Negative, Low grade Biopsy (n = 41)
  Number of patients: 0
[1]; Pap smear Invasive (n = 5), stain Negative, all
  Number of patients: 0
[1]; Pap smear Invasive (n = 5), stain Positive, Benign biopsy n = 6
  Number of patients: 0
[1]; Pap smear Invasive (n = 5), stain Positive, High grade biopsy (n = 26)
  Number of patients: 4
[1]; Pap smear Invasive (n = 5), stain Positive, Invasive (n = 5)
  Number of patients: 1
[1]; Pap smear Invasive (n = 5), stain Positive, Low grade Biopsy (n = 41)
  Number of patients: 0
[1]; Pap smear Invasive (n = 5), stain Positive, all
  Number of patients: 5
[1]; Pap smear Low grade (n = 46), stain Negative, Benign biopsy n = 6
  Number of patients: 4
[1]; Pap smear Low grade (n = 46), stain Negative, High grade biopsy (n = 26)
  Number of patients: 0
[1]; Pap smear Low grade (n = 46), stain Negative, Invasive (n = 5)
  Number of patients: 0
[1]; Pap smear Low grade (n = 46), stain Negative, Low grade Biopsy (n = 41)
  Number of patients: 3
[1]; Pap smear Low grade (n = 46), stain Negative, all
  Number of patients: 7
[1]; Pap smear Low grade (n = 46), stain Positive, Benign biopsy n = 6
  Number of patients: 0
[1]; Pap smear Low grade (n = 46), stain Positive, High grade biopsy (n = 26)
  Number of patients: 9
[1]; Pap smear Low grade (n = 46), stain Positive, Invasive (n = 5)
  Number of patients: 1
[1]; Pap smear Low grade (n = 46), stain Positive, Low grade Biopsy (n = 41)
  Number of patients: 29
[1]; Pap smear Low grade (n = 46), stain Positive, all
  Number of patients: 39
[1]
  Accuracy: Accuracy = 94%
  Sensitivity: 94%
  Specificity: 86%
  Number of patients, stain negative, Total: 10
  Number of patients, stain negative, biopsy Ca, HG, LG: 4
  Number of patients, stain positive, Total: 68
  Number of patients, stain positive, biopsy Ca, HG, LG: 67
[2]
  Burning sensation: did not cause the same burning sensation

From patent US20240358861A1, “COMPOSITIONS AND METHODS OF FLUORESCEIN SODIUM FOR EARLY DIAGNOSIS OF CERVICAL CANCER” (THE MOEIN FAMILY TRUST, priority 2023, published 2024)
